Assay results from patent publication US5599966A, “Substituted ethanolamine esters” (BYK Nederland BV, priority 1992, dated 1997).
Structures can show the parent of a compound that is named as a salt.

system: guinea pig trachea; experiment: relaxing action on guinea pig trachea contracted beforehand with methacholine (in vitro, organ bath); assay type: cell-based; conditions: Cavia porcellus, read-out: -log[EC50 (mol/l)] (converted)
Protocol: For this, the relaxing action on a guinea pig trachea which has been contracted beforehand with a suitable dose of methacholine is measured for the compounds to be investigated. The trachea of male guinea pigs (200-300 g) is removed and divided into individual segments and each segment is suspended in an organ bath with 118.5 mM NaCl, 4.7 mM KCl, 1.2 mM MgSO4, 2.5 mM CaCl2, 1.2 mM KH2 PO4, 25 mM NaHCO3 and 10 mM glucose at 37° C. Oxygen to which 5% of CO2 has been added is passed permanently through the solution. After stabilization, the trachea is contracted with a suitable dose of methacholine. Thereafter, a dose/effect curve is plotted with the test substances in a cumulative manner. The concentration (mol/l) which corresponds to 50% of the maximum effect (EC50) is then determined from this curve. This EC50 is thus a measure of the activity of the compounds according to the invention.
The serial number in the table agrees with the number of the compounds in the examples. The number n indicates the number of investigations.

In the case of Nc1c(Cl)cc(C(O)CNCCOCCOC(=O)Cc2ccccc2)cc1Cl (stereo not shown) [Compound 106, {2-[2-[2-(4-Amino-3,5-dichlorophenyl)-2-hydroxyethylamino]ethoxy]ethyl}phenylacetate-fumarate], the EC50 is reported as 7.94 nM.

same assay, conditions: Cavia porcellus; in vitro relaxation of methacholine-contracted guinea pig trachea segments, cumulative dose/effect curve, 37° C., n = 3 to 6; read-out: -log[EC50 (mol/l)] (converted)

First: Nc1c(Cl)cc(C(O)CNCCCCCCOC(=O)CCc2ccc(O)cc2)cc1Cl (stereo not shown) [Compound 17, {6-[2-(4-Amino-3,5-dichlorophenyl)-2-hydroxyethylamino]-1-hexyl}[3-(4-hydroxyphenyl)]propionate-hydrochloride]
Second: Nc1c(Cl)cc(C(O)CNCCCCCC(=O)OCCc2ccc(O)cc2)cc1Cl (stereo not shown) [Compound 37, 2-(4-Hydroxyphenyl)ethyl 6-[2-(4-amino-3,5-dichlorophenyl)-2-hydroxyethylamino]hexanoate]
The EC50 of the first is 10-fold higher: 20 nM for the first, 2 nM for the second.

Going from Nc1c(Cl)cc(C(O)CNCCCCCC(=O)OCCc2cccc3ccccc23)cc1Cl (stereo not shown) [Compound 19, 2-(1-Naphthyl)ethyl 6-[2-(4-amino-3,5-dichlorophenyl)-2-hydroxyethylamino]hexanoate] to Nc1c(Cl)cc(C(O)CNCCCCCCOC(=O)Cc2cccc3ccccc23)cc1Cl (stereo not shown) [Compound 34, {6-[2-(4-Amino-3,5-dichlorophenyl)-2-hydroxyethylamino]-1-hexyl}1-naphthylacetate-maleate], the EC50 falls from 6.31 nM to 3.16 nM (2-fold).

Compared with Nc1c(Cl)cc(C(O)CNCCCCCC(=O)OCCc2ccccn2)cc1Cl (stereo not shown) [Compound 32, 2-(2-Pyridyl)ethyl6-[2-(4-amino-3,5-dichlorophenyl)-2-hydroxyethylamino]hexanoate-hemifumarate], Nc1c(Cl)cc(C(O)CNCCCCCC(=O)OCCc2c[nH]c3ccccc23)cc1Cl (stereo not shown) [Compound 103, 2-(3-Indolyl)ethyl 6-[2-(4-amino-3,5-dichlorophenyl)-2-hydroxyethylamino]hexanoate-hemifumarate] is 5-fold lower in EC50: 15.8 nM for the first, 3.16 nM for the second.

First: O=C(CCCCCNCC(O)c1ccc(O)c(CO)c1)OCCCCc1ccccc1 (stereo not shown) [Compound 64, 4-Phenylbutyl 6-[2-hydroxy-2-(4-hydroxy-3-hydroxymethylphenyl)ethylamino]hexanoate-oxalate]
Second: N#Cc1cc(C(O)CNCCCCCC(=O)OCCc2ccccc2)cc(Cl)c1N (stereo not shown) [Compound 74, 2-Phenylethyl 6-[2-(4-amino-5-chloro-3-cyanophenyl)-2-hydroxyethylamino]hexanoate-hemifumarate]
The EC50 of the first is 2.5-fold higher: 10 nM for the first, 3.98 nM for the second.

Nc1ccc(C(O)CNCCCCCCOC(=O)Cc2ccccc2Cl)c(Cl)c1Cl (stereo not shown) [Compound 82, {6-[2-(4-Amino-2,3-dichlorophenyl)-2-hydroxyethylamino]-1-hexyl}2-chlorophenylacetate-hemifumarate] gave an EC50 of 10 nM.
